Experimental data: doi:10.1101/2024.12.04.625365v1 (biorxiv, 2024)

What was measured:
recombinant hAQP4 (AQP4) = recombinant hAQP4 (AQP4) (Homo sapiens, UniProt P55087); test: biochemical
[1] = target: T1, A2AR (human A2A receptor) (Homo sapiens, UniProt P29274); test: intrinsic tryptophan fluorescence quenching; format: binding
[2] = target: T1, A2AR (human A2A receptor); test: displacement of [3H]ZM-241385 from crude Pichia membranes; format: binding

T1 sequence (P29274 whole entry): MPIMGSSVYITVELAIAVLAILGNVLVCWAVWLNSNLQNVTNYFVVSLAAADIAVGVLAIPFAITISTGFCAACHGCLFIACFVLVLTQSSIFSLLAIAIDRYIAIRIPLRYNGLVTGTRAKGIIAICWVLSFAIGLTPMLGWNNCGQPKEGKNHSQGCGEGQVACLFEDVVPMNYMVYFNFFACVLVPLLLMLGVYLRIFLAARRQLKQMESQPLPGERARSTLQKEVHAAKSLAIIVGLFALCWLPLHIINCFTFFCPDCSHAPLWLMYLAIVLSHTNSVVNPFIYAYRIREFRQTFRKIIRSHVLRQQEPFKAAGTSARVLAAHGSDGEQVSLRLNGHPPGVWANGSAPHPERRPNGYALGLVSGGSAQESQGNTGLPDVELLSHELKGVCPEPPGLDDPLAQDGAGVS
Sequence of recombinant hAQP4 (AQP4) (P55087 whole entry): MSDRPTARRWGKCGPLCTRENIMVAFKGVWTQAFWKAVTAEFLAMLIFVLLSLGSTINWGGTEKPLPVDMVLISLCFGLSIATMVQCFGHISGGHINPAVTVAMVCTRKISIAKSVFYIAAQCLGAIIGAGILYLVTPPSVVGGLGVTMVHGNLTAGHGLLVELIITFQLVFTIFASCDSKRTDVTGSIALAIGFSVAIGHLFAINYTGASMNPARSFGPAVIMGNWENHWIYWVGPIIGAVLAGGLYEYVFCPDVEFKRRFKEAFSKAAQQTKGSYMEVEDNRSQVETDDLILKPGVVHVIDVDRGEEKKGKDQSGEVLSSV

Row | Kd (recombinant hAQP4 (AQP4)) [µM] | Kd [1] [µM] | IC50 [2] [µM] | Compound
1 | 17 ± 3.1 | – | – | O=C(Nc1cc(C(F)(F)F)cc(C(F)(F)F)c1)c1cc(Cl)ccc1O [AER-270, N-(3,5-bis(trifluoromethyl)phenyl)-5-chloro-2-hydroxybenzamide]
2 | – | 54 | 20 | O=C(Nc1nncs1)c1cccnc1 [TGN-020, N-1,3,4-thiadiazol-2-yl-3-pyridinecarboxamide]
